Measurements published in US20180201592A1, “2-AMINO-1,3,4-THIADIAZINE AND 2-AMINO-1,3,4-OXADIAZINE BASED ANTIFUNGAL AGENTS” (F2G Limited, priority 2015, published 2018).

Tests used:
Settings in all cases: banded MIC grade
[1] = test system: A. terreus; test: Minimum inhibitory concentration, RPMI medium; format: cell-based
Summary of the method: (§1)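 Broth microdilution in RPMI 1640 medium using doubling dilutions in water prepared from a 5 mg/mL DMSO stock. Plates incubated 24-48 hrs at 35° C; growth read as optical density at 485 nm.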

[2] = test system: A. terreus 49; test: Minimum inhibitory concentration, RPMI medium; format: cell-based
Summary of the method: as §1

[3] = test system: C. tropicalis; test: Minimum inhibitory concentration, RPMI medium; format: cell-based
Summary of the method: as §1

[4] = test system: A. flavus; test: Minimum inhibitory concentration, RPMI medium; format: cell-based
Summary of the method: as §1

[5] = test system: C. albicans; test: Minimum inhibitory concentration, RPMI medium; format: cell-based
Summary of the method: as §1

[6] = test system: C. glabrata; test: Minimum inhibitory concentration, RPMI medium; format: cell-based
Summary of the method: as §1

[7] = test system: C. parapsilosis; test: Minimum inhibitory concentration, RPMI medium; format: cell-based
Summary of the method: as §1

[8] = test system: C. krusei; test: Minimum inhibitory concentration, RPMI medium; format: cell-based
Summary of the method: as §1

[9] = test system: A. niger; test: Minimum inhibitory concentration, RPMI medium; format: cell-based
Summary of the method: as §1

[10] = test system: Aspergillus fumigatus; test: Minimum inhibitory concentration, YAG medium; format: cell-based
Summary of the method: (§2)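 MIC, in mg/L, defined as the lowest drug level inhibiting growth by >70% relative to drug-free wells, judged by OD 485 nm after 24 hrs at 35° C. Spores (1-2×10^4 cfu/mL) were grown in YAG medium against doubling dilutions, usually 50-0.05 mg/L, repeated at 0.5-0.0005 mg/L where needed.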

[11] = test system: A. fumigatus 210; test: Minimum inhibitory concentration, YAG medium; format: cell-based, Aspergillus fumigatus
Summary of the method: as §2

[12] = test system: A. fumigatus; test: Minimum inhibitory concentration, RPMI medium; format: cell-based
Experimental: (§3) Between 1 and 5 mgs of compound were accurately weighed out into a sterile Eppendorf tube. The compound was dissolved in DMSO to give a solution containing 5 mg/mL. Tubes were stored at −20° C. until required.
(§4) On the day of testing thawed solutions were vortex mixed to ensure homogeneity. 30 μL of solution was removed and added to 570 μL of sterile water in a separate sterile Eppendorf. The thoroughly mixed solution was used to prepare a series of doubling dilutions in water, in a deep well plate. Thirteen replicate plates were prepared using a Minitrak by aspirating 20 μL from each well into eleven clear polystyrene 96 well plates.
(§5) Assays were also performed in RPMI medium (Roswell Park Memorial Media 1640). To perform MIC tests in this medium, dilutions of compounds are prepared in microtitre plates as described above. Fungal strains to be tested are grown and harvested in an identical manner to that described above, and each organism suspension was diluted in RPMI medium, typically containing 2% glucose and 0.135 M MOPS buffer (pH 7.0) to 0.5-2×10^4cfu/mL, rather than in YAG medium. 80 μL of an organism suspension was added to each well of the plate containing drug dilutions.
(§6) This produced MIC plates with a drug range 50-0.05 mg/L and organism inocula of 1-2×10^4 cfu/mL. All plates were incubated for 24-48 hrs at 35° C. Growth was assessed by monitoring the optical density at 485 nm for each well. The MIC of a compound is the lowest drug concentration that inhibits growth of an organism by >80% compared with a drug free control. The following organisms were tested: C. albicans, C. parapsilosis, C. tropicalis, C. glabrata, C. krusei, A. niger, A. fumigatus, A. terreus, A. flavus, A. terreus 49, and A. fumigatus 210.

[13] = test system: A. fumigatus 210; test: Minimum inhibitory concentration, RPMI medium; format: cell-based
Experimental: as §3, §4, §5, §6

[14] = test system: Aspergillus flavus; test: Minimum inhibitory concentration, YAG medium; format: cell-based
Summary of the method: (§7)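 Compound in DMSO (5 mg/mL stock), diluted in water and doubling-diluted; Aspergillus spores grown in YAG medium 24 hrs at 35° C. Growth read as optical density at 485 nm; MIC given in mg/L.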

[15] = test system: Aspergillus terreus; test: Minimum inhibitory concentration, YAG medium; format: cell-based
Summary of the method: as §7

[16] = test system: Aspergillus niger; test: Minimum inhibitory concentration, YAG medium; format: cell-based
Summary of the method: as §7

[17] = test system: A. terreus 49; test: Minimum inhibitory concentration, YAG medium; format: cell-based, Aspergillus terreus
Summary of the method: as §7

Compound	MIC grade, A. TERREUS, RPMI media [1]	MIC grade, A. TERREUS 49, RPMI media [2]	MIC grade, C. TROPICALIS, RPMI media [3]	MIC grade, A. FLAVUS, RPMI media [4]	MIC grade, C. ALBICANS, RPMI media [5]	MIC grade, C. GLABRATA, RPMI media [6]	MIC grade, C. PARAPSILOSIS, RPMI media [7]	MIC grade, C. KRUSEI, RPMI media [8]	MIC grade, A. NIGER, RPMI media [9]	MIC grade, A. FUMIGATUS, YAG media [10]	MIC grade, A. FUMIGATUS 210, YAG media [11]	MIC grade, A. FUMIGATUS, RPMI media [12]	MIC grade, A. FUMIGATUS 210, RPMI media [13]	MIC grade, A. FLAVUS, YAG media [14]	MIC grade, A. TERREUS, YAG media [15]	MIC grade, A. NIGER, YAG media [16]	MIC grade, A. TERREUS 49, YAG media [17]
CC(=O)OCCCCC1=NN=C(N)SC1	3 (3: 1-5 mg/L)	3 (3: 1-5 mg/L)	3 (3: 1-5 mg/L)	3 (3: 1-5 mg/L)	3 (3: 1-5 mg/L)	2 (2: 5-20 mg/L)	4 (4: <1 mg/L)	4 (4: <1 mg/L)	2 (2: 5-20 mg/L)	4 (4: <0.2 mg/L)	4 (4: <0.2 mg/L)	3 (3: 1-5 mg/L)	3 (3: 1-5 mg/L)	4 (4: <0.2 mg/L)	4 (4: <0.2 mg/L)	3 (3: 0.2-1 mg/L)	4 (4: <0.2 mg/L)
NC1=NN=C(CCCCOCCc2ccccc2)CS1	2 (2: 5-20 mg/L)	2 (2: 5-20 mg/L)	3 (3: 1-5 mg/L)	3 (3: 1-5 mg/L)	3 (3: 1-5 mg/L)	2 (2: 5-20 mg/L)	3 (3: 1-5 mg/L)	3 (3: 1-5 mg/L)	2 (2: 5-20 mg/L)	3 (3: 0.2-1 mg/L)	3 (3: 0.2-1 mg/L)	2 (2: 5-20 mg/L)	1 (1: ≥20 mg/L)	4 (4: <0.2 mg/L)	3 (3: 0.2-1 mg/L)	3 (3: 0.2-1 mg/L)	3 (3: 0.2-1 mg/L)
NC1=NN=C(CCCCOCCCc2ccc(F)cc2F)CS1	2 (2: 5-20 mg/L)	2 (2: 5-20 mg/L)	3 (3: 1-5 mg/L)	3 (3: 1-5 mg/L)	4 (4: <1 mg/L)	2 (2: 5-20 mg/L)	4 (4: <1 mg/L)	4 (4: <1 mg/L)	2 (2: 5-20 mg/L)	3 (3: 0.2-1 mg/L)	3 (3: 0.2-1 mg/L)	2 (2: 5-20 mg/L)	1 (1: ≥20 mg/L)	4 (4: <0.2 mg/L)	3 (3: 0.2-1 mg/L)	3 (3: 0.2-1 mg/L)	3 (3: 0.2-1 mg/L)
NC1=NN=C(CCCCOCc2cccc(CCc3ccccc3)c2)CS1	1 (1: ≥20 mg/L)	1 (1: ≥20 mg/L)	2 (2: 5-20 mg/L)	2 (2: 5-20 mg/L)	2 (2: 5-20 mg/L)	1 (1: ≥20 mg/L)	2 (2: 5-20 mg/L)	2 (2: 5-20 mg/L)	1 (1: ≥20 mg/L)	2 (2: 1-5 mg/L)	1 (1: ≥5 mg/L)	1 (1: ≥20 mg/L)	1 (1: ≥20 mg/L)	2 (2: 1-5 mg/L)	2 (2: 1-5 mg/L)	2 (2: 1-5 mg/L)	2 (2: 1-5 mg/L)
CCCCc1cccc(COCCCCC2=NN=C(N)SC2)c1	2 (2: 5-20 mg/L)	2 (2: 5-20 mg/L)	2 (2: 5-20 mg/L)	2 (2: 5-20 mg/L)	2 (2: 5-20 mg/L)	1 (1: ≥20 mg/L)	2 (2: 5-20 mg/L)	2 (2: 5-20 mg/L)	2 (2: 5-20 mg/L)	1 (1: ≥5 mg/L)	1 (1: ≥5 mg/L)	2 (2: 5-20 mg/L)	1 (1: ≥20 mg/L)	3 (3: 0.2-1 mg/L)	2 (2: 1-5 mg/L)	3 (3: 0.2-1 mg/L)	2 (2: 1-5 mg/L)
CCc1cccc(COCCCCC2=NN=C(N)SC2)c1	2 (2: 5-20 mg/L)	2 (2: 5-20 mg/L)	4 (4: <1 mg/L)	3 (3: 1-5 mg/L)	4 (4: <1 mg/L)	2 (2: 5-20 mg/L)	4 (4: <1 mg/L)	4 (4: <1 mg/L)	2 (2: 5-20 mg/L)	4 (4: <0.2 mg/L)	3 (3: 0.2-1 mg/L)	2 (2: 5-20 mg/L)	2 (2: 5-20 mg/L)	4 (4: <0.2 mg/L)	4 (4: <0.2 mg/L)	4 (4: <0.2 mg/L)	4 (4: <0.2 mg/L)
NC1=NN=C(CCCCOCc2ccc(Br)cc2)CS1	4 (4: <1 mg/L)	3 (3: 1-5 mg/L)	4 (4: <1 mg/L)	4 (4: <1 mg/L)	4 (4: <1 mg/L)	4 (4: <1 mg/L)	4 (4: <1 mg/L)	4 (4: <1 mg/L)	3 (3: 1-5 mg/L)	4 (4: <0.2 mg/L)	4 (4: <0.2 mg/L)	2 (2: 5-20 mg/L)	2 (2: 5-20 mg/L)	4 (4: <0.2 mg/L)	4 (4: <0.2 mg/L)	4 (4: <0.2 mg/L)	4 (4: <0.2 mg/L)
NC1=NN=C(CCCCSCc2ccc(Cl)cc2)CS1	2 (2: 5-20 mg/L)	2 (2: 5-20 mg/L)	3 (3: 1-5 mg/L)	3 (3: 1-5 mg/L)	3 (3: 1-5 mg/L)	2 (2: 5-20 mg/L)	3 (3: 1-5 mg/L)	3 (3: 1-5 mg/L)	3 (3: 1-5 mg/L)	3 (3: 0.2-1 mg/L)	3 (3: 0.2-1 mg/L)	2 (2: 5-20 mg/L)	2 (2: 5-20 mg/L)	4 (4: <0.2 mg/L)	4 (4: <0.2 mg/L)	4 (4: <0.2 mg/L)	4 (4: <0.2 mg/L)
